Reference: US10184933B2, “Compositions, systems and methods for gene expression noise drug screening and uses thereof” (priority 2013, dated 2019)
Structures can show the parent of a compound that is named as a salt. Where two headings read alike, the source gives them in different places.

Experiments:
HIV-1 LTR promoter = assay type: cell-based; settings: for identified as variability suppressor (VS) in noise screen: FIG. 12
[1] = system: latent HIV-1 in JLat 8.6 cells; assay type: cell-based
[2] = Pharmakon 1600 library, 10 uM, 24 hours, FIG. 10
[3] = Pharmakon 1600 library, 10 uM, 24 hours

Row | Molecule | identified as variability enhancer (VE) in noise screen (HIV-1 LTR promoter; [2]) | synergy in reactivation of HIV-1 latency [1] | identified as variability enhancer (VE) in noise screen (HIV-1 LTR promoter) | synergy in reactivation of HIV-1 latency ([1]; with one or more of PMA, prostratin, TNFα, and bryostatin, FIG. 11) | identified as variability suppressor (VS) in noise screen (HIV-1 LTR promoter; [3])
1 | C[N+]12CCC(CC1)C(OC(=O)C(O)(c1ccccc1)c1ccccc1)C2 (stereo not shown) [V49, clidinium bromide] | variability enhancers | synergized |  |  | 
2 | Cc1cccc(N(C)C(=S)Oc2ccc3ccccc3c2)c1 [V54, tolnaftate] | variability enhancers | synergized |  |  | 
3 | acetophenazine maleate [V12] |  | synergized | variability enhancers |  | 
4 | COc1ccccc1O [V92, guaiacol] | variability enhancers | synergized |  |  | 
5 | CCN(CC)CCNC(=O)c1ccc(N)cc1 [V38, Procainamide hydrochloride] | variability enhancers | synergized |  |  | 
6 | COCCCOc1ccnc(C[S+]([O-])c2nc3ccccc3[nH]2)c1C (stereo not shown) [V93, rabeprazole sodium] | variability enhancers | synergized |  |  | 
7 | colesevalam hydrochloride [V60] | variability enhancers | synergized |  |  | 
8 | O=c1[nH]c(=O)n(Cl)c(=O)n1Cl [V63, troclosene potassium] |  | synergized | variability enhancers |  | 
9 | CCN(CC)CCNC(=O)c1cc(Cl)c(N)cc1OC [V53, Metoclopramide hydrochloride] | variability enhancers | synergized |  |  | 
10 | CO[C@@]1(NC(=O)Cc2cccs2)C(=O)N2C(C(=O)O)=C(COC(N)=O)CS[C@@H]21 [V46, cefoxitin sodium] | variability enhancers | synergized |  |  | 
11 | CCCc1nc(C)c2c(=O)[nH]c(-c3cc(S(=O)(=O)N4CCN(CC)CC4)ccc3OCC)nn12 [V91, vardenafil hydrochloride] | variability enhancers | synergized |  |  | 
12 | CC(C)[C@H](N)C(=O)OCC(CO)OCn1cnc2c(=O)nc(N)[nH]c21 (stereo partly shown) [V80, valganciclovir hydrochloride] | variability enhancers | synergized |  |  | 
13 | Oc1ccc(O)cc1 [V76, hydroquinone] |  | synergized | variability enhancers |  | 
14 | CC(C)(CO)[C@@H](O)C(=O)NCCC(=O)[O-].[Na+] [V22, pantothenic acid(d) na salt] |  | synergized | variability enhancers |  | 
15 | COc1cnc(NS(=O)(=O)c2ccc(N)cc2)nc1 [V41, sulfameter] | variability enhancers | synergized |  |  | 
16 | Oc1ccc(Cl)cc1 [V99, parachlorophenol] |  | synergized | variability enhancers |  | 
17 | N[C@@H](Cc1ccc(O)c(O)c1)C(=O)O [V78, levodopa] | variability enhancers | synergized |  |  | 
18 | C#CCN(C)Cc1ccccc1 [V61, Pargyline hydrochloride] | variability enhancers | synergized |  |  | 
19 | Nc1ccc(S(=O)(=O)Nc2cnc3ccccc3n2)cc1 [V42, sulfaquinoxaline sodium] | variability enhancers | synergized |  |  | 
20 | CNCCC(Oc1ccc(C(F)(F)F)cc1)c1ccccc1 (stereo not shown) [V50, Fluoxetine hydrochloride] |  | synergized | variability enhancers |  | 
21 | CC1=C(C(=O)O)N2C(=O)[C@@H](NC(=O)[C@H](N)c3ccc(O)cc3)[C@H]2SC1 [V40, cefadroxil] | variability enhancers | synergized |  |  | 
22 | CO[C@H]1C[C@H](O[C@@H]2/C(C)=C/C[C@@H]3C[C@@H](C[C@]4(CC[C@H](C)[C@@H](C5CCCCC5)O4)O3)OC(=O)[C@@H]3C=C(C)/C(=N/O)[C@H]4OC/C(=C\C=C\[C@@H]2C)[C@]43O)O[C@@H](C)[C@@H]1O [V77, selamectin] |  | synergized | variability enhancers |  | 

Row | Molecule | identified as variability enhancer (VE) in noise screen (HIV-1 LTR promoter; [2]) | synergy in reactivation of HIV-1 latency [1] | identified as variability enhancer (VE) in noise screen (HIV-1 LTR promoter) | synergy in reactivation of HIV-1 latency ([1]; with one or more of PMA, prostratin, TNFα, and bryostatin, FIG. 11) | identified as variability suppressor (VS) in noise screen (HIV-1 LTR promoter; [3])
23 | C=CCC1(C(C)CCC)C(=O)N=C(S)NC1=O (stereo not shown) [V8, thiamylal sodium] | variability enhancers | synergized |  |  | 
24 | COc1ccccc1OCCNCC(O)COc1cccc2[nH]c3ccccc3c12 (stereo not shown) [V84, carvedilol] | variability enhancers | synergized |  |  | 
25 | Cc1cn[nH]c1 [V27, fomepizole hydrochloride] | variability enhancers | synergized |  |  | 
26 | COc1c(C)c2c(c(O)c1C/C=C(\C)CCC(=O)O)C(=O)OC2 [V95, mycophenolic acid] | variability enhancers | synergized |  |  | 
27 | CCCCC(CC)COc1ccc(-c2nc(-c3ccc(OC)cc3)nc(-c3ccc(OCC(CC)CCCC)cc3O)n2)c(O)c1 (stereo not shown) [V98, bemotrizinol] | variability enhancers | synergized |  |  | 
28 | O=[N+]([O-])OCC(CO[N+](=O)[O-])O[N+](=O)[O-] [V100, nitroglycerin] | variability enhancers | synergized |  |  | 
29 | Cc1cc(CC(=O)O)n(C)c1C(=O)c1ccc(Cl)cc1 [V31, zomepirac sodium] | variability enhancers | synergized |  |  | 
30 | O=C(O)CCCc1ccccc1 [V59, phenylbutyric acid] |  | synergized | variability enhancers |  | 
31 | CC(C)NCC(O)c1ccc(NS(C)(=O)=O)cc1 (stereo not shown) [V83, sotalol hydrochloride] | variability enhancers | synergized |  |  | 
32 | CC(C)(CO)[C@@H](O)C(=O)NCCCO [V90, dexpanthenol] | variability enhancers | synergized |  |  | 
33 | COc1ccc(CCN(C)CCCC(C#N)(c2ccc(OC)c(OC)c2)C(C)C)cc1OC (racemic) [V24, (±)-Verapamil hydrochloride] |  | synergized |  |  | 
34 | O=C(Nc1ccccc1)OCC(CN1CCCCC1)OC(=O)Nc1ccccc1 (stereo not shown) [V30, diperodon hydrochloride] | variability enhancers | synergized |  |  | 
35 | CN1CCCN=C1COC(=O)C(O)(c1ccccc1)C1CCCCC1 (stereo not shown) [V47, oxyphencyclimine hydrochloride] | variability enhancers | synergized |  |  | 
36 | c1ccc2[nH]c(-c3cscn3)nc2c1 [V33, thiabendazole] | variability enhancers | synergized |  |  | 
37 | CN(C)CCC(c1ccc(Cl)cc1)c1ccccn1 (stereo not shown) [V58, chlorpheniramine maleate] |  | synergized | variability enhancers |  | 
38 | COc1cc(C(=O)NCc2ccc(OCCN(C)C)cc2)cc(OC)c1OC [V52, trimethobenzamide hydrochloride] | variability enhancers | synergized |  |  | 
39 | colistin sulfate [V45] | variability enhancers |  |  | synergized | 
40 | meclocycline sulfosalicylate |  |  |  |  | variability suppressors
41 | arsenic trioxide |  |  |  |  | variability suppressors
42 | CC(C)(C#N)c1cc(Cn2cncn2)cc(C(C)(C)C#N)c1 [V68, anastrozole] | variability enhancers |  |  |  | 
43 | COC(=O)Nc1nc2ccc([S+]([O-])c3ccccc3)cc2[nH]1 (stereo not shown) [oxfendazole] | variability enhancers |  |  |  | 
44 | C[C@H]1O[C@@H](O[C@H]2[C@@H](O)C[C@H](O[C@H]3[C@@H](O)C[C@H](O[C@H]4CC[C@@]5(C)[C@H](CC[C@@H]6[C@@H]5CC[C@]5(C)[C@@H](C7=CC(=O)OC7)CC[C@]65O)C4)O[C@@H]3C)O[C@@H]2C)C[C@H](O)[C@@H]1O [digitoxin] | variability enhancers |  |  |  | 
